According to patent US20040225017A1, “Chloramine T based teat cleaner and related process” (priority 2003, published 2004):

What was measured:
[1] = pH at which the solution buffers out; format: physicochemical; conditions: in solution, residual on teat surface
teat area of animals = conditions: in vivo

For Cc1ccc(S(=O)(=O)[N-]Cl)cc1.[Na+] [CHT, Chloramine T], the “pH at which it naturally buffers out” value [1] was “about 9” and the “irritation of the teat area” value (teat area of animals) was “do not irritate the teat area”.
